In patent US12528837B2, “Aryl substituted polymyxin derivatives” (priority 2018, dated 2026):

Assays:
Type in all cases: cell-based
[1] = tested on: E. coli ATCC 25922; experiment: MIC alone and with rifampicin, broth microdilution CLSI; details: alone
Protocol: (§1) MIC values (μg/mL) were determined by broth microdilution under CLSI conditions.

[2] = tested on: K. pneumoniae ATCC 13882; experiment: as above; details: alone
Protocol: as §1

[3] = tested on: A. baumannii IHMA 517303; details: alone
Protocol: as §1

[4] = tested on: A. baumannii NCTC 13301 (OXA-23); details: OXA-23; alone
Protocol: as §1

[5] = tested on: E. coli IHMA 940398; details: alone
Protocol: as §1

[6] = tested on: K. pneumoniae IHMA 580884; details: alone
Protocol: as §1

[7] = tested on: P. aeruginosa ATCC 27853; details: alone
Protocol: as §1

[8] = tested on: P. aeruginosa IHMA 517175; details: alone
Protocol: as §1

[9] = tested on: P. aeruginosa IHMA 644636; details: alone
Protocol: as §1

Polymyxin B [reference compound]
MIC E. coli ATCC 25922 [1]: 0.25 µg/mL
MIC K. pneumoniae ATCC 13882 [2]: 0.25 µg/mL
MIC A. baumannii IHMA 517303 [3]: >64 µg/mL
MIC A. baumannii NCTC 13301 [4]: 0.25 µg/mL
MIC E. coli IHMA 940398 [5]: 16 µg/mL
MIC K. pneumoniae IHMA 580884 [6]: 8 µg/mL
MIC P. aeruginosa ATCC 27853 [7]: 0.5 µg/mL
MIC P. aeruginosa IHMA 517175 [8]: 8 µg/mL
MIC P. aeruginosa IHMA 644636 [9]: 32 µg/mL
